Tests used:
[1] = system: INS-1 insulin-secreting β-cells; test: Glucose (8.3 mmol·L^−1)-stimulated insulin secretion in INS-1 cells (HTRF insulin assay); format: cell-based; details: for ability to amplify glucose-stimulated insulin secretion: blind screening, 2 and 20 μM; for % control response (glucose-stimulated insulin secretion): control = glucose alone; for degree of stimulation of insulin secretion: summary over the different insulin secretion conditions in INS-1 cells, 20 μmol·L^−1
Procedure: Cells were seeded in 24-well plates (4×10^5 cells per well) and were used for experiments after 5 days of culture.
Cells were incubated for 1 h (5% CO2, 37° C.) in KRB medium containing 8.3 mmol·L^−1 glucose (glucose-stimulated secretion) in the presence or absence of the compounds tested. At the end of the 1 h incubation period, the medium was sampled and stored at −20° C. until the insulin assay. Insulin concentration in cell supernatants was determined using the homogeneous time resolved fluorescence technology (HTRF), according to the manufacturer's instructions (HTRF insulin assay kit, Cisbio International, Bagnols-sur-Ceze, France). Briefly, two anti-insulin antibodies were used; one labelled with Eu^3+-Cryptate and one labelled with XL665 recognizing distinct epitopes. When these two fluorophores bind to insulin molecules, the two antibodies come into close proximity, allowing fluorescence resonance energy transfer (FRET) to occur between the Eu^3+-Cryptate and the XL665. This FRET increases proportionally with the insulin concentrations. All the experiments were performed at least in quadruplicate.
For the determination of insulin secretion, cells were incubated for 1 h (5% CO2, 37° C.) in KRB medium containing either 1.4 mmol·L^−1 glucose (low-glucose) or 8.3 mmol·L^−1 glucose (glucose-stimulated secretion) in the presence or absence of the compounds tested. At the end of the 1 h incubation period, mediums were sampled and stored at −20° C. until the insulin assay.

[2] = system: INS-1 insulin-secreting β-cells; test: INS-1 cell viability (MTT) in the presence of oxidative stress (H2O2); format: cell-based; details: 20 μmol·L^−1 urolithin; 8.3 mmol·L^−1 glucose + H2O2
Procedure: For protection experiments, INS-1 cells were pre-incubated with the indicated concentrations of urolithins for one hour (5% CO2, 37° C.) in RPMI medium. After two washes in HEPES-balanced Krebs-Ringer bicarbonate buffer (123 mmol·L^−1 NaCl, 5.4 mmol·L^−1 KCl, 1.3 mmol·L^−1 KH2PO4, 2.7 mmol·L^−1 MgSO4, 2.9 mmol·L^−1 CaCl2, 5 mmol·L^−1 NaHCO3 and 20 mmol·L^−1 HEPES, pH 7.5) containing 2 g·L^−1 bovine serum albumin (KRB/BSA), INS-1 cells were incubated for one hour (5% CO2, 37° C.) in KRB/BSA containing urolithins at the indicated concentrations in the presence of 1.4 mmol·L^−1 glucose (basal condition) or 8.3 mmol·L^−1 glucose (stimulant condition). When used, H2O2 (50 gmol·L^−1) was added at the beginning of the one-hour incubation period. Control experiments were performed in the basal condition, in the absence of urolithins during the pre-incubation and incubation periods.
Cell viability was determined using the 3-(4,5-Dimethylthiazol-2-yl)-2,5-diphenyltetrazolium bromide (MTT) assay. At the end of the one-hour incubation period, cells were washed with KRB/BSA and KRB/BSA containing 5 mg/ml MTT was added to each well. Plates were then incubated for 3 h in the dark in a humidified atmosphere (5% CO2, 37° C.). Cells were washed with phosphate buffered saline (PBS) and precipitates were dissolved in 50 μl dimethyl sulfoxide (DMSO). Absorbance of the reduced intracellular formazan product was read at 492 nm on a microtiter plate reader (Tecan, Lyon, France). Experiments were performed in quadruplicate.

[3] = compound 2 μM, 8.3 mmol·L^−1 glucose
[4] = compound 20 μM, 8.3 mmol·L^−1 glucose

| Structure (SMILES) | ability to amplify glucose-stimulated insulin secretion ([1]; 8.3 mmol·L^−1 glucose) | % control response (glucose-stimulated insulin secretion) [1, 3] [%] | % control response (glucose-stimulated insulin secretion) [1, 4] [%] | degree of stimulation of insulin secretion [1] | prevention of viability impairment induced by H2O2 (MTT) [2] | active concentration ([1]; glucose-stimulated secretion condition, active at this concentration only) [µM] | stimulation of insulin secretion at the maximal concentration tested ([1]; 8.3 mmol·L^−1 glucose, control 100% = glucose alone) |
| --- | --- | --- | --- | --- | --- | --- | --- |
| O=c1oc2c(O)c(O)ccc2c2cc(O)c(O)cc12 [Urolithin D, urolithin D] | able to amplify | 88.79 | 158.62 | 135-155% | totally prevent viability impairment |  |  |
| O=c1oc2cc(O)ccc2c2ccccc12 [Urolithin B, urolithin B] | able to amplify | 108.77 | 145.61 | 140% | partially active | 20 |  |
| O=c1oc2cc(O)ccc2c2ccc(O)cc12 [Urolithin A, urolithin A] | able to amplify | 109.82 | 162.50 | about 160% | no effect |  |  |
| O=c1oc2cc(O)ccc2c2cc(O)c(O)cc12 [Urolithin C, urolithin C] | able to amplify | 107.14 | 194.64 | 185-200% | totally prevent viability impairment |  | about 200% |

Reference: patent publication US11213508B2, “Compositions comprising urolithins and uses thereof for the stimulation of insulin secretion” (Centre National de la Recherche Scientifique (CNRS), priority 2013, dated 2022)
